Measured values taken from patent US11834417B2, “Compositions for the treatment of hypertension and/or fibrosis” (Vectus Biosystems Limited, priority 2016, dated 2023).

Columns and labels:
[1] = system: spontaneous hypertensive rats (SHR); experiment: Myocardial fibrosis quantitation (Masson's Trichrome) in SHR on a 2.2% salt diet; assay type: in vivo, rat; details: 4 weeks
Excerpt: (§1) Fourteen week old spontaneous hypertensive rats (SHR; Australian Animal Resources Centre, WA) on a 2.2% salt diet (Glenn Forrest Stockfeeders, WA) were randomized to the following treatment groups: 14-week control, or VB0002 infusion (20 pmol/kg/min in 20% DMSO) or vehicle control infusion (20% DMSO) for 4 weeks. VB0002 and vehicle control infusions were via Alzet osmotic minipump, which was inserted under general anaesthesia (Isoflurane 3% in oxygen) at 14 weeks.
Fourteen week old spontaneous hypertensive rats on a 2.2% salt diet were also randomized to the following treatment groups: 14-week control, or VB0003 administration (10, 100 or 500 pmol/kg/min in 5% ethanol), VB0005 administration (100 pmol/kg/min in 5% ethanol) or drinking solution (5% ethanol) administration for 4 weeks.
(§2) The 14-week control group were anaesthetized using isoflurane (3%) delivered in oxygen, then had blood sampled and hearts and kidneys harvested for quantitation of fibrosis. The remaining groups were weighed and had blood pressure measured by tail cuff plethysmography (ADI Instruments) twice weekly for a further 4 weeks. After 4 weeks treatment, rats were anaesthetized and samples collected as per the 14-week control group. Results are mean±sem for n=5 rats per group.
For quantitation of fibrosis, tissue slices ≤3 mm thick were fixed in 10% buffered formalin for 24 hours, processed and embedded in paraffin. Three μm transverse sections were stained using Masson's Trichrome. A minimum of 20 random fields at 40× magnification from transverse sections ([…]) were digitized. The degree of fibrosis was determined as a percent of field area of each digitized image using Image-Pro Plus V.5 (Media Cybernetics, Bethesda, Md., USA), and then averaged to determine the level of fibrosis for each rat.

[2] = system: spontaneous hypertensive rats (SHR); experiment: Systolic blood pressure by tail cuff plethysmography in SHR on a 2.2% salt diet; assay type: in vivo, rat
Excerpt: as §1, with “14 weeks. […]” for “14 weeks.”
as §2

[3] = 100 pmol/kg/min in drinking solution (5% ethanol), compared to 14 week controls
[4] = 100 pmol/kg/min in drinking solution (5% ethanol), compared to 18 week controls
[5] = in 5% ethanol in the drinking solution for 4 weeks (FIG. 9:), compared to 18 week controls (p<0.0005)

| melting point | Compound | Myocardial fibrosis ([1]; 20 pmol/kg/min infusion via osmotic minipump, compared to 14 week controls (FIG. 10)) | Myocardial fibrosis ([1]; 20 pmol/kg/min infusion via osmotic minipump, compared to 18 week controls (FIG. 10)) | Systolic blood pressure ([2]; in 20% DMSO intravenously via osmotic minipump for 4 weeks, compared to 18 week controls (FIG. 8, p<0.005)) | Myocardial fibrosis ([1]; 10 pmol/kg/min in drinking solution (5% ethanol), compared to 18 week controls) | Myocardial fibrosis [1, 3] | Myocardial fibrosis [1, 4] | Myocardial fibrosis ([1]; 500 pmol/kg/min in drinking solution (5% ethanol), compared to 14 week controls) | Myocardial fibrosis ([1]; 500 pmol/kg/min in drinking solution (5% ethanol), compared to 18 week controls) | Systolic blood pressure [2, 5] |
| --- | --- | --- | --- | --- | --- | --- | --- | --- | --- | --- |
| 249 °C (dec.) | NC(=O)Cc1c(Cc2ccccc2)ncn1Cc1cccc(O)c1 [VB0002, 2-[4-Benzyl-1-(3-hydroxybenzyl)-1H-imidazol-5-yl]acetamide] | reduced | reduced | reduced |  |  |  |  |  |  |
| 84 to 88 °C | CC(O)Cc1c(-c2ccccc2)ncn1Cc1cccc(O)c1.Cl (centres unmarked) |  |  |  |  |  |  |  |  |  |
|  | CC(O)Cc1c(-c2ccccc2)ncn1Cc1cccc(O)c1 (centres unmarked) [VB0003, 3-[5-(2-hydroxypropyl)-4-phenyl-imidazol-1-ylmethyl]-phenol] |  |  |  | reduced | reduced | reduced | reduced | reduced | reduced |
|  | NC(=O)CC[C@H]1CN(c2ccccc2)CCN1c1cccc(O)c1 [VB0005, (S)-3-[1-(3-Hydroxy)phenyl-4-phenylpiperazin-2-yl]propanamide] |  |  |  |  | reduced | reduced |  |  | reduced |
